In publication PMC10976746 (Molecular Medicine, 2024):
pIC50: −log10 of the molar value.

Columns and labels:
[1] = target: T1, Macrophage migration inhibitory factor (MIF) (Homo sapiens, UniProt P14174)
T1 sequence (P14174 2-115): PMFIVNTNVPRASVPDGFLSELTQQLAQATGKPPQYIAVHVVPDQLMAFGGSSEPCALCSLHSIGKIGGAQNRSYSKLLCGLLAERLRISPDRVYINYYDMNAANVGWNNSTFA

murine MIF = murine MIF (Mus musculus, UniProt P34884); assay: dopachrome tautomerase inhibition assay, recombinant mouse MIF; assay type: biochemical

| SMILES | keto-enol tautomerase kinetics (Michaelis-Menten), enol-HPP/borate at 306 nm [1] | pIC50 (murine MIF) |
| --- | --- | --- |
| O=C(O)C(=O)Cc1ccc(O)cc1 [4-HPP, 4-hydroxyphenylpyruvate] | (B) the substrate 4-HPP for MIF-induced keto-enol tautomerization | – |
| CS(=O)(=O)Nc1cc2occ(NC=O)c(=O)c2cc1Oc1ccccc1 [T-614, iguratimod] | – | 5.28 |
